This test concerns the target SMYD3 (Homo sapiens (Human), UniProt Q9H7B4). As to the kind of experiment: SMYD3 biochemical assay (SMYD3 enzyme assay on MEKK2 protein substrate, 3H-SAM scintillation proximity assay). The settings on record: read-out: SMYD3 Biochem IC50. The gist of the method:
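Detection used scintillation proximity beads to capture ³H-methylated GST-MEKK2 after quench with 100 uM final cold SAM. The reaction was started by SAM/MEKK2 addition after a 30 min RT compound–enzyme preincubation. Enzyme was tag-free full-length human SMYD3 from E. coli, in buffer of 25 mM Tris-Cl pH 8.0, 1 mM TCEP, 0.005% BSG, 0.005% Tween 20.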
A general note: Scintillation proximity formats need no separation of bound from free tracer.

As usually defined, the IC50 is the concentration that inhibits the measured activity by half.

Each structure is given as a SMILES string. A value given as a limit tells only on which side of the number the result lay.

Chain of SMYD3 (Q9H7B4 whole entry): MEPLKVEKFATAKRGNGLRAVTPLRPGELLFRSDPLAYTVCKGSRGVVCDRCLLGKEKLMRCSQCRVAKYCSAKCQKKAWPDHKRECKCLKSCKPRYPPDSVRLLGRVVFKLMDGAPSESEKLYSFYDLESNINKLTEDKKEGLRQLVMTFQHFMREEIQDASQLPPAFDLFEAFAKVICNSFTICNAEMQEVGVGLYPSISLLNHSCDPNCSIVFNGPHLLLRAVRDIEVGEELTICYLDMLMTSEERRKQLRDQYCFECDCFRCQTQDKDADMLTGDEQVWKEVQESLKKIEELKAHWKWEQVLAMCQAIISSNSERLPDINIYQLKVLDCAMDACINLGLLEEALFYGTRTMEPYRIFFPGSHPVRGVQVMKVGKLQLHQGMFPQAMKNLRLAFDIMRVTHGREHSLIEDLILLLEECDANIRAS

Consider `COc1cccc(C(=O)NC(C)C2CCN(C(=O)[C@H](C)N)CC2)n1` (stereo partly drawn) [compound 301, N-(1-(1-(L-alanyl)piperidin-4-yl)ethyl)-6-methoxypicolinamide], for which the IC50 was > 100 µM.

Turning to `COc1cnc(C(=O)NC(C)C2CCN(C(=O)[C@H](C)N)CC2)cn1` (stereo partly drawn) [compound 302, N-(1-(1-(L-alanyl)piperidin-4-yl)ethyl)-5-methoxypyrazine-2-carboxamide], the IC50 is > 100 µM.

For `NCCC(=O)N[C@H]1CC[C@H](NC(=O)[C@H]2CC[C@H](N)CC2)CC1` [compound 303, (1r,4r)-4-amino-N-((1r,4r)-4-(3-aminopropanamido)cyclohexyl)cyclohexane-1-carboxamide], the IC50 was > 100 µM.

With `N[C@H]1CC[C@H](NC(=O)[C@H]2CC[C@H](N)CC2)CC1` [compound 304, (1r,4r)-4-amino-N-((1r,4r)-4-aminocyclohexyl)cyclohexane-1-carboxamide], the IC50 was > 100 µM.

`CC(NC(=O)[C@@H]1C[C@H](F)CN1)C1CCN(C(=O)[C@H](C)N)CC1` (stereo partly drawn) [compound 305, (2S,4S)-N-(1-(1-(L-alanyl)piperidin-4-yl)ethyl)-4-fluoropyrrolidine-2-carboxamide]: the IC50 was 55.9 µM.

With `CC(NC(=O)[C@H]1Cc2ccccc2CN1)C1CCN(C(=O)[C@H](C)N)CC1` (stereo partly drawn) [compound 306, (3R)-N-(1-(1-(L-alanyl)piperidin-4-yl)ethyl)-1,2,3,4-tetrahydroisoquinoline-3-carboxamide], the IC50 was found to be 48.1 µM.

`N[C@H]1CC[C@H](NC(=O)c2cccc3c2OC(F)(F)O3)CC1` [compound 307, N-((1r,4r)-4-aminocyclohexyl)-2,2-difluorobenzo[d][1,3]dioxole-4-carboxamide]: the IC50 was > 100 µM.

`N[C@H]1CC[C@H](NC(=O)c2ccncc2F)CC1` [compound 308, N-((1r,4r)-4-aminocyclohexyl)-3-fluoroisonicotinamide]: the IC50 is > 100 µM.

Take `CC(NC(=O)c1cncs1)C1CCN(C(=O)[C@H](C)N)CC1` (stereo partly drawn) [compound 309, N-(1-(1-(L-alanyl)piperidin-4-yl)ethyl)thiazole-5-carboxamide]: the IC50 is > 100 µM.

As to `CC(NC(=O)c1ccc(O)cn1)C1CCN(C(=O)[C@H](C)N)CC1` (stereo partly drawn) [compound 310, N-(1-(1-(L-alanyl)piperidin-4-yl)ethyl)-5-hydroxypicolinamide], the IC50 is > 100 µM.

For the molecule `CC(NC(=O)C1=NNC(=O)CC1)C1CCN(C(=O)[C@H](C)N)CC1` (stereo partly drawn) [compound 311, N-(1-(1-(L-alanyl)piperidin-4-yl)ethyl)-6-oxo-1,4,5,6-tetrahydropyridazine-3-carboxamide], the IC50 is > 100 µM.

On to `CC(NC(=O)c1n[nH]c2ccccc12)C1CCN(C(=O)[C@H](C)N)CC1` (stereo partly drawn) [compound 312, N-(1-(1-(L-alanyl)piperidin-4-yl)ethyl)-1H-indazole-3-carboxamide], for which the IC50 was > 100 µM.

`CC(NC(=O)Cc1cc(F)cc(F)c1)C1CCN(C(=O)[C@H](C)N)CC1` (stereo partly drawn) [compound 313, N-(1-(1-(L-alanyl)piperidin-4-yl)ethyl)-2-(3,5-difluorophenyl)acetamide]: the IC50 amounted to 70.7 µM.

`CC(NC(=O)Cc1cccnc1)C1CCN(C(=O)[C@H](C)N)CC1` (stereo partly drawn) [compound 314, N-(1-(1-(L-alanyl)piperidin-4-yl)ethyl)-2-(pyridin-3-yl)acetamide]: the IC50 was > 100 µM.

On to `CC(NC(=O)Cc1cncnc1)C1CCN(C(=O)[C@H](C)N)CC1` (stereo partly drawn) [compound 315, N-(1-(1-(L-alanyl)piperidin-4-yl)ethyl)-2-(pyrimidin-5-yl)acetamide], for which the IC50 is > 100 µM.

In the case of `CC(NC(=O)Cn1ccnc1)C1CCN(C(=O)[C@H](C)N)CC1` (stereo partly drawn) [compound 316, N-(1-(1-(L-alanyl)piperidin-4-yl)ethyl)-2-(1H-imidazol-1-yl)acetamide], the IC50 was > 100 µM.

On to `NCCC(=O)N[C@H]1CC[C@H](NC(=O)c2cn3ccsc3n2)CC1` [compound 317, N-((1r,4r)-4-(3-aminopropanamido)cyclohexyl)imidazo[2,1-b]thiazole-6-carboxamide], for which the IC50 was > 100 µM.

For the molecule `N[C@H]1CC[C@H](NC(=O)c2cn3ccsc3n2)CC1` [compound 318, N-((1r,4r)-4-aminocyclohexyl)imidazo[2,1-b]thiazole-6-carboxamide], the IC50 was > 100 µM.

In the case of `Cc1ncc(C(=O)N[C@H]2CC[C@H](N)CC2)cn1` [compound 320, N-((1r,4r)-4-aminocyclohexyl)-2-methylpyrimidine-5-carboxamide], the IC50 is > 100 µM.

With `NCCC(=O)N[C@H]1CC[C@H](NC(=O)c2ccnc(N)c2)CC1` [compound 321, 2-amino-N-((1r,4r)-4-(3-aminopropanamido)cyclohexyl)isonicotinamide], the IC50 was determined as 16.6 µM.

Turning to `Nc1cc(C(=O)N[C@H]2CC[C@H](N)CC2)ccn1` [compound 322, 2-amino-N-((1r,4r)-4-aminocyclohexyl)isonicotinamide], the IC50 was > 100 µM.

Take `CC(NC(=O)c1ccc(S(N)(=O)=O)cc1)C1CCN(C(=O)[C@H](C)N)CC1` (stereo partly drawn) [compound 323, N-(1-(1-(L-alanyl)piperidin-4-yl)ethyl)-4-sulfamoylbenzamide]: the IC50 was > 100 µM.

Turning to `Cc1cc(C)c(C(=O)N[C@H]2CC[C@H](N)CC2)c(=O)[nH]1` [compound 324, N-((1r,4r)-4-aminocyclohexyl)-4,6-dimethyl-2-oxo-1,2-dihydropyridine-3-carboxamide], the IC50 is > 100 µM.

For `Cn1ncc2ccc(C(=O)N[C@H]3CC[C@H](NC(=O)CCN)CC3)cc21` [compound 325, N-((1r,4r)-4-(3-aminopropanamido)cyclohexyl)-1-methyl-1H-indazole-6-carboxamide], the IC50 is > 100 µM.

Take `COc1ccc2cc(C(=O)N[C@H]3CC[C@H](NC(=O)CCN)CC3)ccc2c1` [compound 326, N-((1r,4r)-4-(3-aminopropanamido)cyclohexyl)-6-methoxy-2-naphthamide]: the IC50 came to 28 µM.

In the case of `NCCC(=O)N[C@H]1CC[C@H](NC(=O)c2cc(=O)c3ccccc3o2)CC1` [compound 327, N-((1r,4r)-4-(3-aminopropanamido)cyclohexyl)-4-oxo-4H-chromene-2-carboxamide], the half-maximal inhibitory concentration (IC50) was > 100 µM.

With `N[C@H]1CC[C@H](NC(=O)c2cc(O)c3ccccc3n2)CC1` [compound 328, N-((1r,4r)-4-aminocyclohexyl)-4-hydroxyquinoline-2-carboxamide], the IC50 was > 100 µM.

As to `NCCC(=O)N[C@H]1CC[C@H](NC(=O)c2ccc(-n3cnnc3)cc2)CC1` [compound 329, N-((1r,4r)-4-(3-aminopropanamido)cyclohexyl)-4-(4H-1,2,4-triazol-4-yl)benzamide], the IC50 is > 100 µM.

Consider `NCCC(=O)N[C@H]1CC[C@H](NC(=O)c2ccc3c(c2)OC(F)(F)O3)CC1` [compound 330, N-((1r,4r)-4-(3-aminopropanamido)cyclohexyl)-2,2-difluorobenzo[d][1,3]dioxole-5-carboxamide], for which the IC50 was 7.49 µM.

With `NCCC(=O)N[C@H]1CC[C@H](NC(=O)c2ccc3c(c2)no[n+]3[O-])CC1` [compound 331, 5-(((1r,4r)-4-(3-aminopropanamido)cyclohexyl)carbamoyl)benzo[c][1,2,5]oxadiazole 1-oxide], the IC50 was determined as 85.1 µM.

For the molecule `NCCC(=O)N[C@H]1CC[C@H](NC(=O)c2ccc3nonc3c2)CC1` [compound 332, N-((1r,4r)-4-(3-aminopropanamido)cyclohexyl)benzo[c][1,2,5]oxadiazole-5-carboxamide], the IC50 was > 100 µM.

On to `N[C@H]1CC[C@H](NC(=O)CCCn2ccnc2)CC1` [compound 333, N-((1r,4r)-4-aminocyclohexyl)-4-(1H-imidazol-1-yl)butanamide], for which the IC50 was > 100 µM.

As for `COc1ccc2cc(C(C)C(=O)NC(C)C3CCN(C(=O)[C@H](C)N)CC3)ccc2c1` (stereo partly drawn) [compound 334, N-(1-(1-(L-alanyl)piperidin-4-yl)ethyl)-2-(6-methoxynaphthalen-2-yl)propanamide], the IC50 worked out at 34.9 µM.

As to `NCCC(=O)N[C@H]1CC[C@H](NC(=O)c2cc3cc(F)ccc3[nH]2)CC1` [compound 335, N-((1r,4r)-4-(3-aminopropanamido)cyclohexyl)-5-fluoro-1H-indole-2-carboxamide], the IC50 is > 100 µM.

On to `N[C@H]1CC[C@H](NC(=O)c2nc3ccccc3[nH]2)CC1` [compound 336, N-((1r,4r)-4-aminocyclohexyl)-1H-benzo[d]imidazole-2-carboxamide], for which the IC50 is > 100 µM.

Turning to `Cn1ccnc1C(=O)N[C@H]1CC[C@H](N)CC1` [compound 337, N-((1r,4r)-4-aminocyclohexyl)-1-methyl-1H-imidazole-2-carboxamide], the IC50 is > 100 µM.

As for `CC(NC(=O)C1C[C@@H]2C=C[C@H]1C2)C1CCN(C(=O)[C@H](C)N)CC1` (stereo partly drawn) [compound 338, (1r,4r)-N-(1-(1-(L-alanyl)piperidin-4-yl)ethyl)bicyclo[2.2.1]hept-5-ene-2-carboxamide], the IC50 was > 100 µM.

As to `Cc1ccncc1C(=O)N[C@H]1CC[C@H](N)CC1` [compound 339, N-((1r,4r)-4-aminocyclohexyl)-4-methylnicotinamide], the IC50 is > 100 µM.

On to `Cc1cccc(Cn2nc(C(C)(C)C)cc2C(=O)N[C@H]2CC[C@H](NC(=O)CCN)CC2)c1` [compound 340, N-((1r,4r)-4-(3-aminopropanamido)cyclohexyl)-3-(tert-butyl)-1-(3-methylbenzyl)-1H-pyrazole-5-carboxamide], for which the IC50 was > 100 µM.

For the molecule `Cc1cccc(Cn2nc(C(C)(C)C)cc2C(=O)N[C@H]2CC[C@H](N)CC2)c1` [compound 341, N-((1r,4r)-4-aminocyclohexyl)-3-(tert-butyl)-1-(3-methylbenzyl)-1H-pyrazole-5-carboxamide], the IC50 was > 100 µM.

Take `Cc1cccc2cc(C(=O)N[C@H]3CC[C@H](NC(=O)CCN)CC3)[nH]c12` [compound 342, N-((1r,4r)-4-(3-aminopropanamido)cyclohexyl)-7-methyl-1H-indole-2-carboxamide]: the IC50 was determined as 37.7 µM.

The values above are taken from patent publication US10266526B2, “Substituted 1,2,3-triazoles as SMYD inhibitors for treating cancer” (EPIZYME, INC., priority 2014, dated 2019).
